Legend:
[1] = 101 kPa, Liquid; for viscosity: Falling or rolling sphere viscometry; for mass density: Vibrating tube method
[2] = xn = mol fraction of the nth substance listed; conditions: 101 kPa, Liquid, x1 = 1; for viscosity: Falling or rolling sphere viscometry; for mass density: Vibrating tube method

CC(C)CO [2-methyl-1-propanol]
[1]
Conditions | mass density [kg/m3] | viscosity [mPa·s]
308.15 K | 790.12 | 2.382
313.15 K | 786.12 | 2.116
318.15 K | 782.06 | 1.861
323.15 K | 777.93 | 1.602
328.15 K | 773.73 | –
333.15 K | 769.44 | –
338.15 K | 765.07 | –
343.15 K | 760.61 | –

CC(C)(C)O [2-methylpropan-2-ol]
[1]
Conditions | mass density [kg/m3] | viscosity [mPa·s]
308.15 K | 770.36 | 2.589
313.15 K | 765.07 | 2.089
318.15 K | 759.67 | 1.69
323.15 K | 754.19 | 1.409
328.15 K | 748.62 | –
333.15 K | 742.95 | –
338.15 K | 737.19 | –
343.15 K | 731.31 | –

CCC(C)O (stereo not given) [butan-2-ol]
[1]
Conditions | mass density [kg/m3] | viscosity [mPa·s]
308.15 K | 794.05 | 2.128
313.15 K | 789.65 | 1.822
318.15 K | 785.15 | 1.533
323.15 K | 780.55 | 1.315
328.15 K | 775.83 | –
333.15 K | 770.99 | 1.025
338.15 K | 766.03 | –
343.15 K | 760.96 | –

CCC(C)O (stereo not given) [butan-2-ol] + CC(C)CO
[2]
Conditions | mass density [kg/m3] | viscosity [mPa·s]
308.15 K | 794.05 | 2.128
313.15 K | 789.65 | 1.822
318.15 K | 785.15 | 1.533
323.15 K | 780.55 | 1.315
328.15 K | 775.83 | –
333.15 K | 770.99 | 1.025
338.15 K | 766.03 | –
343.15 K | 760.96 | –

Reference: the NIST ThermoML archive (doi:10.1021/je400423u)
